Experimental data taken from PMC5468484 (The Pediatric infectious disease journal, 2017).
Entries after “also recorded” stand apart in the source; their conditions may differ. Read-outs that look alike come from different tables or passages of the source.

Key:
[1] = Long term stability of dalbavancin plasma samples; format: in vitro ADME, human; conditions: plasma (K2-EDTA), 368 days stored at −20°C, LC-MS/MS
Safety evaluation = format: in vivo, human
[2] = human plasma; cited from earlier work
[3] = cited from earlier work
[4] = tested on: acute bacterial skin and skin structure infections; conditions: adults, cited from earlier work
clinical = conditions: human, in vivo, iv
[5] = tested on: cytochrome P450 isoenzymes; conditions: cited from earlier work
[6] = for Terminal half-life: study DUR001-106, single IV dose, post-hoc slope of gamma phase, three compartment model, median (range)
[7] = among the 36 treatment-emergent AEs
[8] = children 3 months to 11 years (N=34)
[9] = children 3 months to 11 years, single IV dose
[10] = nonparametric bootstrap (N=1000) of final model
[11] = three-compartment model, 43 subjects, typical value at weight 40.9 kg

For `CN[C@H]1C(=O)N[C@@H]2Cc3ccc(cc3)Oc3cc4cc(c3O[C@@H]3O[C@H](C(=O)O)[C@@H](O)[C@H](O)[C@H]3NC(=O)CCCCCCCCC(C)C)Oc3ccc(cc3Cl)[C@@H](O)[C@@H]3NC(=O)[C@H](NC(=O)[C@@H]4NC(=O)[C@@H](NC2=O)c2cc(cc(O)c2Cl)Oc2cc1ccc2O)c1ccc(O)c(c1)-c1c(O[C@H]2O[C@H](CO)[C@@H](O)[C@H](O)[C@@H]2O)cc(O)cc1[C@@H](C(=O)NCCCN(C)C)NC3=O` [dalbavancin], the “Long term stability of plasma samples” value [1] was “stable”, the “AEs deemed possibly related to dalbavancin treatment” value (Safety evaluation; N=1 each) was “rash, diaper dermatitis, urticaria, and asymptomatic hepatic enzyme elevation” and the “Treatment-emergent AEs considered mild” value (Safety evaluation; [7]) was 26. For the same compound, the “Treatment-emergent AEs considered moderate” value (Safety evaluation; [7]) was 6, the “Treatment-emergent AEs considered severe” value (Safety evaluation; [7]) was 4 and the “Number of treatment-emergent AEs” value (Safety evaluation; [8]) was 36. For the same compound, the “Serious or severe treatment-emergent AEs considered related to dalbavancin treatment” value (Safety evaluation; [8]) was “None and no serious or severe AEs related to treatment”, the “Subjects who experienced a serious AE” value (Safety evaluation; [8]) was “Five” and the Deaths (Safety evaluation; [9]) was “no deaths were reported”. The Tolerability (Safety evaluation; [9]) was “well tolerated”, the “AE probably related to study treatment” value (Safety evaluation; one subject) was “infusion site discomfort” and the “Adverse events assessed as possibly or probably related to treatment” value (Safety evaluation; out of 36 treatment-emergent adverse events) was “Five”. The “Binding to plasma proteins” value [2] was 93%, the “Volume of distribution at steady-state” value ([3]; adults) was 15.9 L and the “Eliminated as the parent compound in feces and urine” value [3] was ~ 70%. The “Efficacy of single 1500 mg infusion versus the 2-dose regimen” value ([4]; ABSSSI) was “as effective as the 2-dose regimen; also recorded: noninferior to the 2-dose regimen”, the “Efficacy versus intravenous vancomycin with subsequent oral linezolid in ABSSSI” value ([4]; two studies, 2-dose dalbavancin regimen) was “not inferior; also recorded: noninferior” and the clearance (clinical) was 1.05 mL/h/kg. For the same compound, the clearance (clinical; 10 mg/kg) was 1.23 mL/h/kg, the clearance (clinical; 15 mg/kg) was 0.795 mL/h/kg and the “Substrate, inhibitor or inducer of cytochrome P450 isoenzymes” value [5] was “not a substrate, inhibitor, or inducer”. For the same compound, the Terminal half-life ([6]; 2 years to <6 years (N=11)) was 315 (271–332) h, the Terminal half-life ([6]; 3 months to <2 years (N=11)) was 279 (244–298) h and the Terminal half-life ([6]; 6 to 11 years (N=11)) was 390 (317–490) h. The “Power coefficient of albumin on Vc, final model estimate” value ([6]; (Albumin/3.7)^coefficient) was −0.73, the “Power coefficient of albumin on Vc, bootstrap median” value [6, 10] was −0.72 and the “Power coefficient of weight on volume parameters, bootstrap median” value [6, 10] was 0.95. For the same compound, the “Power coefficient of weight on volume parameters, final model estimate” value ([6]; same coefficient for Vc, Vp1, Vp2, ((Weight in kg)/40.9)^coefficient) was 0.95, the “Vp1 (volume of distribution for peripheral compartment 1), final model estimate” value [6, 11] was 2.90 L and the “Vp2 (volume of distribution for peripheral compartment 2), final model estimate” value [6, 11] was 2.93 L.
